In US20130310379A1, “MODULATORS OF METHYL MODIFYING ENZYMES, COMPOSITIONS AND USES THEREOF” (CONSTELLATION PHARMACEUTICALS, priority 2010, published 2013):
pIC50: −log10 of the molar value.

target: EZH2 (Homo sapiens, UniProt Q15910); experiment: EZH2 assay: rPRC2 with biotinylated oligonucleosome substrates and 3H SAM, FlashPlate scintillation counting, IC50; type: biochemical; settings: rPRC2, biotinylated oligonucleosome substrates, 3H SAM; read-out: EZH2 IC50
Experimental: Assays were carried out by mixing rPRC2 together with biotinylated oligonucleosome substrates in the presence of the radio-labeled enzyme co-factor, S-adenosyl-L-methionine (^3H SAM) (Perkin Elmer) and monitoring the enzymatically mediated transfer of tritiated methyl groups from ^3H SAM to histone lysine residues. The amount of resulting tritated methylhistone product was measured by first capturing the biotinylated oligonuclesomes in streptavidin (SAV) coated FlashPlates (Perkin Elmer), followed by a wash step to remove un-reacted ^3H SAM, and then counting on a TopCount NXT 384 well plate scintillation counter (Perkin Elmer). The final assay conditions for EZH2 were as follows: 50 mM Tris Buffer pH 8.5, 1 mM DTT, 69 uM Brij-35 detergent, 5.0 mM MgCl2, 0.1 mg/mL BSA, 0.2 uM ^3H SAM, 0.2 uM biotinylated oligonucleosomes, 3.6 uM H3K27me3 peptide and 2 nM EZH2.
Compound IC50 measurements were obtained as follows: Compounds were first dissolved in 100% DMSO as 10 mM stock solutions. […] A 12.5 uL volume of the HMT enzyme, H3K27me3 peptide and oligonucleosome substrate in assay buffer was added to each well of the assay plate using a Multidrop Combi (ThermoFisher). Compounds were pre-incubated with the enzyme for 20 min, followed by initiation of the methyltransferase reaction by addition of 12.5 uL of 3H SAM in assay buffer (final volume=25 uL). The final concentrations of compounds ranged from a top default concentration of 80 uM down to 0.16 uM in ten 2-fold dilution steps. Reactions were carried out for 60 minutes and quenched with 20 uL per well of 1.96 mM SAH, 50 mM Tris PH 8.5, 200 mM EDTA. Stopped reactions were transferred to SAV coated Flashplates (Perkin Elmer), incubated for 120 min, washed with a plate washer, and then read on the TopCount NXT (1.0 min/well) to measure the amount of methylhistone product formed during the reaction. The amount of methylhistone product was compared with the amount of product formed in the 0% and 100% inhibition control wells allowing the calculation of % Inhibition in the presence of the individual compounds at various concentrations. IC50's were computed using a 4 parameter fit non-linear curve fitting software package (XLFIT, part of the database package, ActivityBase (IDBS)) where the four parameters were IC50, Hill slope, pre-transitional baseline (0% INH), and post-transitional baseline (100% INH); with the latter two parameters being fixed to zero and 100%, respectively, by default.

Chain of EZH2 (Q15910 whole entry): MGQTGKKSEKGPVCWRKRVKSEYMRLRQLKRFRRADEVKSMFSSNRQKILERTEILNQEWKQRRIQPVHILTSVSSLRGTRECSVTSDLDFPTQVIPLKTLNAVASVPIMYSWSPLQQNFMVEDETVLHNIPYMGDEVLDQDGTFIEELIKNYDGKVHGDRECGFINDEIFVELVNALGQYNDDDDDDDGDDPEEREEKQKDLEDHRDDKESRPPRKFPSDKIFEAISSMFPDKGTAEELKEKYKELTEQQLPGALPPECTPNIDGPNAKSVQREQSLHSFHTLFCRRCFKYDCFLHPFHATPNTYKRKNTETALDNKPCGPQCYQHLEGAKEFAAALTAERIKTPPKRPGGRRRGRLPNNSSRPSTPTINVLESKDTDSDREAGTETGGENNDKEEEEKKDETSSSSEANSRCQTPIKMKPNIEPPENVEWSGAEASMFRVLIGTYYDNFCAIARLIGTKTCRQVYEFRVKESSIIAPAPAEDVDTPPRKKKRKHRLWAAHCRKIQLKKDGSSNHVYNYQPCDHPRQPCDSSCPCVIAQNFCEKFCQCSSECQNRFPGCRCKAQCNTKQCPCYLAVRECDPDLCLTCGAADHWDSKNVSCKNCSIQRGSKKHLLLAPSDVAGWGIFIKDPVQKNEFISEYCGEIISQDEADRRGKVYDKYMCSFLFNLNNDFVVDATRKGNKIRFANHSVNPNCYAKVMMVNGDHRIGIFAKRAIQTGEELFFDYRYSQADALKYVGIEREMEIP
Chain of EZH2 (O75530 whole entry partner): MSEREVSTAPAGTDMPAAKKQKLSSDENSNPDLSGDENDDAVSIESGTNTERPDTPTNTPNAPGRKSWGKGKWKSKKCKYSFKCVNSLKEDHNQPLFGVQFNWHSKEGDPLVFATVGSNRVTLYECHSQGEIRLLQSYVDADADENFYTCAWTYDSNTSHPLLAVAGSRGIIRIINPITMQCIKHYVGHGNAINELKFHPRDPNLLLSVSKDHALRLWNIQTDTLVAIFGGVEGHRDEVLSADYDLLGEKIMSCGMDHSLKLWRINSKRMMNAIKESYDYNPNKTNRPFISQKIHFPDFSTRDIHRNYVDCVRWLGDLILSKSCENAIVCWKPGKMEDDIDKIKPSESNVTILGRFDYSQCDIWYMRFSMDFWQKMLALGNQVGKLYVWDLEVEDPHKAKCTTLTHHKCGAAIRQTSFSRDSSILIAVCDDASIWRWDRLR
Chain of EZH2 (Q15022 whole entry partner): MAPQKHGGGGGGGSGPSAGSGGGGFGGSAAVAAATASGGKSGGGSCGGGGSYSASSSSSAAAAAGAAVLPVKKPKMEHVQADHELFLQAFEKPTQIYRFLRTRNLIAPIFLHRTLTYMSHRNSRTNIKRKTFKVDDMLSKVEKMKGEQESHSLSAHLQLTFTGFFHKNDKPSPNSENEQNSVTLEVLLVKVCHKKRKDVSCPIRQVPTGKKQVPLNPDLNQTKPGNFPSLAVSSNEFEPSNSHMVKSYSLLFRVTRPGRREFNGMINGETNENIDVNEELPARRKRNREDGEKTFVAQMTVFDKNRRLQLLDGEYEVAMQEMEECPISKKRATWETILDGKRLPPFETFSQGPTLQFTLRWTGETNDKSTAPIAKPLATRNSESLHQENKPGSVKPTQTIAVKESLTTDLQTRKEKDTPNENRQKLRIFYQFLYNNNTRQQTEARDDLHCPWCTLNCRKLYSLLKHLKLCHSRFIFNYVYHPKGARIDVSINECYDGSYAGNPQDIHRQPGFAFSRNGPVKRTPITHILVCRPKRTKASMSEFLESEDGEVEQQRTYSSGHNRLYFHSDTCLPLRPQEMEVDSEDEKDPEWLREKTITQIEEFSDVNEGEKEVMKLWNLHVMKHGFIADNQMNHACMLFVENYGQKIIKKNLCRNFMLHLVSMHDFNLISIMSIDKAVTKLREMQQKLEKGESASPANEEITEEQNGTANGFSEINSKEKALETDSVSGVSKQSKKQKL

Compound	pIC50
CC1(C)CC(NC(=O)c2ccc(Nc3ccccc3)nc2)CC(C)(C)N1 [Compound I-104, 6-(Phenylamino)-N-(2,2,6,6-tetramethylpiperidin-4-yl)nicotinamide]	< 4.10
CC1(C)CC(NC(=O)c2ccc(OCc3ccc([N+](=O)[O-])cc3)cc2)CC(C)(C)N1 [Compound I-81]	< 4.10
CC1(C)CC(NC(=O)c2ccc(Oc3ccncc3)cc2)CC(C)(C)N1 [Compound I-319]	< 4.10
COc1cc(C(=O)NC2CC(C)(C)NC(C)(C)C2)ccc1COc1cccc(Br)c1 [Compound I-31]	4.10 to 4.70
CNC(=O)Cn1cc(-c2cccc(Oc3ccc(C(=O)NC4CC(C)(C)NC(C)(C)C4)cc3Cl)c2C#N)cn1 [Compound I-387]	> 5.30
CC1(C)CC(NC(=O)c2ccc(Oc3cccc(-c4ccc(N5CCNCC5)nc4)c3C#N)c(Cl)c2)CC(C)(C)N1 [Compound I-549]	> 5.30
CC1(C)CC(NC(=O)c2ccc(CCc3ccccc3)cc2)CC(C)(C)N1 [Compound I-241]	< 4.10
CN1CCC(NC(=O)c2ccc(Oc3ccccc3C#N)c(Cl)c2)CC1 [Compound I-193]	< 4.10
CC1(C)CC(NC(=O)c2ccc(C(=O)Nc3cccc(Br)c3)cc2)CC(C)(C)N1 [Compound I-161]	< 4.10
O=C(c1ccc(Oc2ccccc2)cc1)N1CCN(c2ccccc2)CC1 [Compound I-99]	< 4.10
CC1(C)CC(NC(=O)c2ccc(Oc3cnccn3)cc2)CC(C)(C)N1 [Compound I-78]	< 4.10
CC1(C)CC(NC(=O)c2ccc(N3CCOC(c4ccccc4)C3)c(Cl)c2)CC(C)(C)N1 (centres unmarked) [Compound I-416]	< 4.10
CC1(C)CC(NC(=O)c2ccc(Oc3ccc([N+](=O)[O-])cc3)cc2)CC(C)(C)N1 [Compound I-73]	< 4.10
CC1(C)CC(NC(=O)c2ccc(OC3CCNC3)c(Cl)c2)CC(C)(C)N1 (centres unmarked) [Compound I-411]	< 4.10
CC1(C)CC(NC(=O)c2ccc(COc3cccc(N4CCOCC4)c3)cc2)CC(C)(C)N1 [Compound I-164]	< 4.10
N#Cc1c(Br)cccc1Oc1ccc(C(=O)NC2CCNCC2)cc1Cl [Compound I-407]	< 4.10
N#Cc1ccccc1Oc1ccc(C(=O)NC2CCN(c3cccnc3)CC2)cc1Cl [Compound I-368]	< 4.10
CC1(C)CC(NC(=O)N2CCN(Cc3ccccc3C#N)C(=O)C2)CC(C)(C)N1 [Compound I-448]	< 4.10
O=C(N[C@H]1CCN(Cc2ccccc2)C1)c1ccc(Oc2ccccc2)cc1 [Compound I-100]	< 4.10
CC(=O)NCc1cccc(Oc2ccc(C(=O)NC3CC(C)(C)NC(C)(C)C3)cc2Cl)c1 [Compound I-430]	> 5.30
CC1(C)CC(NC(=O)c2ccc(OC3CCCCC3)cc2)CC(C)(C)N1 [Compound I-147]	4.10 to 4.70
CC1(C)CC(NC(=O)c2ccc(N3CCOc4ccccc43)c(Cl)c2)CC(C)(C)N1 [Compound I-384]	4.10 to 4.70
CC1(C)CC(NC(=O)c2ccc(-n3cccn3)c(Cl)c2)CC(C)(C)N1 [Compound I-496]	< 4.10
COC(=O)c1cccc(COc2ccc(C(=O)NC3CC(C)(C)NC(C)(C)C3)cc2)c1 [Compound I-53]	4.10 to 4.70
CNCc1cccc(Oc2ccc(C(=O)NC3CC(C)(C)NC(C)(C)C3)cc2)c1 [Compound I-236]	4.70 to 5.30
CC1(C)CC(NC(=O)c2ccc(S(=O)(=O)c3ccccc3)cc2)CC(C)(C)N1 [Compound I-357]	< 4.10
CC(=O)Nc1ccc(-c2cccc(OCc3ccc(C(=O)NC4CC(C)(C)NC(C)(C)C4)cc3)c2)cn1 [Compound I-593]	> 5.30
CC1(C)CC(NC(=O)c2ccc(CNc3ccccc3)cc2)CC(C)(C)N1 [Compound I-106, 4-((Phenylamino)methyl)-N-(2,2,6,6-tetramethylpiperidin-4-yl)benzamide]	< 4.10
CC1(C)CC(NC(=O)c2ccc(COc3cccc(-c4cnc5[nH]ccc5c4)c3)cc2)CC(C)(C)N1 [Compound I-5]	> 5.30

Next, values leading:

pIC50	Compound
> 5.30	CCCc1cc(C(=O)NC2CC(C)(C)NC(C)(C)C2)ccc1Oc1ccccc1C#N [Compound I-198]
> 5.30	CC1(C)CC(NC(=O)c2ccc(Oc3cccc(CC#N)c3-c3cncnc3)c(Cl)c2)CC(C)(C)N1 [Compound I-444]
< 4.10	CC1(C)CC(NC(=O)c2ccc(Oc3ccccc3-c3nn[nH]n3)c(Br)c2)CC(C)(C)N1 [Compound I-282]
> 5.30	CC1(C)CC(NC(=O)c2ccc(Oc3ccccc3C#N)c(N3CCOCC3)c2)CC(C)(C)N1 [Compound I-196]
> 5.30	CC1(C)CC(NC(=O)c2ccc(Oc3ccccc3C#N)c(C#N)c2)CC(C)(C)N1 [Compound I-264]
> 5.30	CC1(C)CC(NC(=O)c2ccc(Oc3ccccc3C#N)c(C(F)(F)F)c2)CC(C)(C)N1 [Compound I-218]
> 5.30	CC1(C)CC(NC(=O)c2ccc(Oc3cccc(-c4cnn(CC(=O)O)c4)c3C#N)c(Cl)c2)CC(C)(C)N1 [Compound I-374]
4.70 to 5.30	CC1(C)CC(NC(=O)c2ccc(Oc3ccccc3Br)cc2)CC(C)(C)N1 [Compound I-16]
> 5.30	CC1(C)CC(NC(=O)c2cc(F)c(Oc3ccccc3C#N)c(Br)c2)CC(C)(C)N1 [Compound I-351]
4.10 to 4.70	CC1(C)CC(NC(=O)c2ccc(Oc3ccccc3)nc2)CC(C)(C)N1 [Compound I-64, 6-Phenoxy-N-(2,2,6,6-tetramethylpiperidin-4-yl)nicotinamide]
4.70 to 5.30	CC1(C)CC(NC(=O)c2ccc(Oc3ccccc3-c3cccnc3N)c(Cl)c2)CC(C)(C)N1 [Compound I-271]
4.10 to 4.70	CC1(C)CC(NC(=O)c2ccc(-n3ccc4ccccc43)c(Cl)c2)CC(C)(C)N1 [Compound I-328]
4.10 to 4.70	CC1(C)CC(NC(=O)c2ccc(Oc3cccc(C(C)(C)C#N)c3)c(Cl)c2)CC(C)(C)N1 [Compound I-462]
< 4.10	CC1(C)CC(NC(=O)c2ccc(Oc3ccccc3C(=O)O)c(Cl)c2)CC(C)(C)N1 [Compound I-353]
4.10 to 4.70	CC1(C)CC(NC(=O)c2ccc(Oc3ccncc3)c(Br)c2)CC(C)(C)N1 [Compound I-318]
4.70 to 5.30	CC1(C)CC(NC(=O)c2ccc(Oc3ccccc3C(=O)NCc3ccccc3)c(Cl)c2)CC(C)(C)N1 [Compound I-286]
4.70 to 5.30	CC1(C)CC(NC(=O)c2ccc(Oc3cccc(C#N)c3)cc2)CC(C)(C)N1 [Compound I-17]

pIC50	Compound
< 4.10	CC1(C)CC(NC(=O)c2ccc(Oc3ccccc3C#N)c(Cl)c2)CC(C)(C)N1CC(=O)O [Compound I-424]
4.70 to 5.30	Cc1ncccc1-c1ccccc1Oc1ccc(C(=O)NC2CC(C)(C)NC(C)(C)C2)cc1Cl [Compound I-293]
> 5.30	CC1(C)CC(NC(=O)c2ccc(Oc3cccc(-c4ccc[nH]4)c3C#N)c(Cl)c2)CC(C)(C)N1 [Compound I-337]
4.10 to 4.70	Cc1ccc(C#N)c(Oc2ccc(C(=O)NC3CC(C)(C)NC(C)(C)C3)cc2)c1 [Compound I-158]
> 5.30	CC1(C)CC(NC(=O)c2ccc(Oc3cccc(-c4cn[nH]c4)c3C#N)c(C3CC3)c2)CC(C)(C)N1 [Compound I-439]
4.70 to 5.30	CC1(C)CC(NC(=O)c2ccc(Oc3ccccc3C(N)=O)c(Br)c2)CC(C)(C)N1 [Compound I-388]
> 5.30	CC1(C)CC(NC(=O)c2ccc(Oc3ccccc3-c3cncnc3)c(Cl)c2)CC(C)(C)N1 [Compound I-279]
> 5.30	CC1(C)CC(NC(=O)c2ccc(Oc3cccc(C4CCNCC4)c3C#N)c(Cl)c2)CC(C)(C)N1 [Compound I-535]
> 5.30	CC1(C)CC(NC(=O)c2ccc(Oc3cc(Br)ccc3C#N)c(Cl)c2)CC(C)(C)N1 [Compound I-255]
> 5.30	CC1(C)CC(NC(=O)c2ccc(Oc3ccccc3C#N)c(-c3cn[nH]c3)c2)CC(C)(C)N1 [Compound I-213]
> 5.30	Cc1cc(C(=O)NC2CC(C)(C)NC(C)(C)C2)ccc1Oc1cccc(-c2cccnc2)c1C#N [Compound I-261]
> 5.30	COC(C)c1cccc(Oc2ccc(C(=O)NC3CC(C)(C)NC(C)(C)C3)cc2Cl)c1C#N (centres unmarked) [Compound I-420]
< 4.10	CC1(C)CC(NC(=O)c2ccc(C(O)c3ccccc3)cc2)CC(C)(C)N1 (centres unmarked) [Compound I-432]
> 5.30	Cc1ccc(-c2cccc(Oc3ccc(C(=O)NC4CC(C)(C)NC(C)(C)C4)cc3Cl)c2C#N)s1 [Compound I-323]
< 4.10	CC1(C)CC(NC(=O)c2ccc(-n3cnc4ccccc43)c(Cl)c2)CC(C)(C)N1 [Compound I-303]
> 5.30	CC(C)c1cc(C(=O)NC2CC(C)(C)NC(C)(C)C2)ccc1Oc1ccccc1C#N [Compound I-237]
